In patent US11279687B2, “Compounds and compositions for the inhibition of NAMPT” (Valo Health, Inc., priority 2010, dated 2022):
Read-outs that look alike come from different tables or passages of the source.

Experiments:
NAMPT = NAMPT (Homo sapiens (Human), UniProt P43490); experiment: NAMPT biochemical inhibition assay (NMN quantified by mass spectrometry); conditions: NAMPT biochemical inhibition; read-out: Biochem IC50
A2780 cells = experiment: In-vitro cell proliferation assay (SRB), A2780 cells; type: cell-based; conditions: A2780 cells, 72 hours, SRB, read-out: A2780 IC50;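 also: viable cell number read as SRB absorbance, background from media-only wells subtracted, IC50 interpolated from percent inhibition at two bracketing compound concentrations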

Sequence of NAMPT (P43490 whole entry): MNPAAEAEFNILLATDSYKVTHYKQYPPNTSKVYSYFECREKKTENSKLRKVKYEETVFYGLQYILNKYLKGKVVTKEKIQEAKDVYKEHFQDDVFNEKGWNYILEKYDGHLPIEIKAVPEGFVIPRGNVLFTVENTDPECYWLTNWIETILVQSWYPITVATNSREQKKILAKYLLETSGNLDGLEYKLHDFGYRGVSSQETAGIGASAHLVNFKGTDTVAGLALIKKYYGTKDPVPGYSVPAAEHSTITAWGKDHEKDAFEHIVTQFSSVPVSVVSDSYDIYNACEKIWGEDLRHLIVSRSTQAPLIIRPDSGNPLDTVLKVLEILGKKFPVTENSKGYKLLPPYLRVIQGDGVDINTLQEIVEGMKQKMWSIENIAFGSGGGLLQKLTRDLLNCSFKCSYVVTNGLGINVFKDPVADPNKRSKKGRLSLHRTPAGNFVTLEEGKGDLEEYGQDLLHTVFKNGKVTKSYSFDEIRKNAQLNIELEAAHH

SMILES: CC(C)C(=O)Nc1cccc(S(=O)(=O)c2ccc(NC(=O)NCc3cccnc3)cc2)c1 [2-methyl-N-{3-[(4-{[(pyridin-3-ylmethyl)carbamoyl]amino}benzene)sulfonyl]phenylJpropanamide]
- IC50 (NAMPT): 1.2 nM
- IC50 (A2780 cells): 10.1 nM

SMILES: COc1cccc(C2(N3CCN(S(=O)(=O)c4ccc(NC(=O)NCc5cccnc5)cc4)CC3)CCC(C)CC2)c1 (centres unmarked) [3-(4-{4-[1-(3-methoxyphenyl)-4-methylcyclohexyl]piperazine-1-sulfonyl}phenyl)-1-(pyridin-3-ylmethyl)urea]
- IC50 (NAMPT): 4 nM
- IC50 (A2780 cells; Homo sapiens, A2780, 72 h): 5 nM

SMILES: O=C(NCc1cccnc1)Nc1ccc(S(=O)(=O)N2CCN(C(=O)Cc3ccc(Cl)c(Cl)c3)CC2)cc1 [3-(4-{4-[2-(3,4-dichlorophenyl)acetyl]piperazine-1-sulfonyl[phenyl)-1-(pyridin-3-ylmethyl)urea]
- IC50 (NAMPT): 3.7 nM
- IC50 (A2780 cells): 1000 to 10000 nM

SMILES: CCN(CC)CCN1CCN(S(=O)(=O)c2ccc(NC(=O)NCc3cccnc3)cc2)CC1 [3-(4-{4-[2-(diethylamino)ethyl]piperazine-1-sulfonyl}phenyl)-1-(pyridin-3-ylmethyl)urea]
- IC50 (NAMPT): 4 nM
- IC50 (A2780 cells; Homo sapiens, A2780, 72 h): 23 nM

SMILES: O=C(NCc1cccnc1)Nc1ccc(S(=O)(=O)N2CCN(c3ncc(C(F)(F)F)cc3Cl)CC2)cc1 [3-(4-{4-[3-chloro-5-(trifluoromethyl)pyridin-2-yl]piperazine-1-sulfonyl}phenyl)-1-(pyridin-3-ylmethyl)urea]
- IC50 (NAMPT): 5 nM
- IC50 (A2780 cells; Homo sapiens, A2780, 72 h): 128 nM

SMILES: O=C(NCc1cccnc1)Nc1ccc(S(=O)(=O)N2CCC(C(=O)c3ccc(F)cc3)CC2)cc1 [3-(4-{4-[(4-fluorophenyl)carbonyl]piperidine-1-sulfonyl}phenyl)-1-(pyridin-3-ylmethyl)urea]
- IC50 (NAMPT): 10 nM
- IC50 (A2780 cells; Homo sapiens, A2780, 72 h): 206 nM

SMILES: O=C(NCc1cccnc1)Nc1ccc(S(=O)(=O)N2CCC(C(=O)N3CCOCC3)CC2)cc1 [3-(4-{4-[(morpholin-4-yl)carbonyl]piperidine-1-sulfonyl}phenyl)-1-(pyridin-3-ylmethyl)urea]
- IC50 (NAMPT): 8 nM
- IC50 (A2780 cells; Homo sapiens, A2780, 72 h): 40 nM

SMILES: O=C(NCc1cccnc1)Nc1ccc(S(=O)(=O)N2CCN(C(c3ccc(F)cc3)c3ccc(F)cc3)CC2)cc1 [3-(4-{4-[bis(4-fluorophenyl)methyl]piperazine-1-sulfonyl}phenyl)-1-(pyridin-3-ylmethyl)urea]
- IC50 (NAMPT): 5 nM
- IC50 (A2780 cells; Homo sapiens, A2780, 72 h): 7 nM

SMILES: CN1CCCC2(CCCN(S(=O)(=O)c3ccc(NC(=O)NCc4cccnc4)cc3)C2)C1 (centres unmarked) [3-(4-{8-methyl-2,8-diazaspiro[5.5]undecane-2-sulfonyl}phenyl)-1-(pyridin-3-ylmethyl)urea]
- IC50 (NAMPT): 1 nM
- IC50 (A2780 cells; Homo sapiens, A2780, 72 h): 1 nM

SMILES: O=C(NCc1cccnc1)Nc1ccc(S(=O)(=O)Nc2cccnc2Oc2ccc(F)cc2)cc1 [3-(4-{[2-(4-fluorophenoxy)pyridin-3-yl]sulfamoyl}phenyl)-1-(pyridin-3-ylmethyl)urea]
- IC50 (NAMPT): 11 nM
- IC50 (A2780 cells; Homo sapiens, A2780, 72 h): 149 nM

SMILES: O=C(NCc1cccnc1)Nc1ccc(S(=O)(=O)Nc2ccccc2OC(F)F)cc1 [3-(4-{[2-(difluoromethoxy)phenyl]sulfamoyl}phenyl)-1-(pyridin-3-ylmethyl)urea]
- IC50 (NAMPT): 0.6 nM
- IC50 (A2780 cells; Homo sapiens, A2780, 72 h): 31 nM

SMILES: COCc1ccccc1S(=O)(=O)c1ccc(NC(=O)NCc2cccnc2)cc1 [3-(4-{[2-(methoxymethyl)benzene]sulfonyl}phenyl)-1-(pyridin-3-ylmethyl)urea]
- IC50 (NAMPT): 6 nM
- IC50 (A2780 cells; Homo sapiens, A2780, 72 h): 39 nM

SMILES: O=C(NCc1cccnc1)Nc1ccc(S(=O)(=O)Nc2cc(C(F)(F)F)ccc2N2CCOCC2)cc1 [3-(4-{[2-(morpholin-4-yl)-5-(trifluoromethyl)phenyl]sulfamoyl}phenyl)-1-(pyridin-3-ylmethyl)urea]
- IC50 (NAMPT): 8 nM
- IC50 (A2780 cells; Homo sapiens, A2780, 72 h): 7 nM

SMILES: O=C(NCc1cccnc1)Nc1ccc(S(=O)(=O)Nc2cc(C(F)(F)F)ccc2N2CCCCC2)cc1 [3-(4-{[2-(piperidin-1-yl)-5-(trifluoromethyl)phenyl]sulfamoyl}phenyl)-1-(pyridin-3-ylmethyl)urea]
- IC50 (NAMPT): 5 nM
- IC50 (A2780 cells; Homo sapiens, A2780, 72 h): 22 nM

SMILES: CC(C)Oc1ccccc1NS(=O)(=O)c1ccc(NC(=O)NCc2cccnc2)cc1 [3-(4-{[2-(propan-2-yloxy)phenyl]sulfamoyl}phenyl)-1-(pyridin] [3-(4-{[2-(propan-2-yloxy)phenyl]sulfamoyl}phenyl)-1-(pyridin-3-ylmethyl)urea]
- IC50 (NAMPT): 2 nM
- IC50 (A2780 cells): 15 nM

SMILES: O=C(NCc1cccnc1)Nc1ccc(S(=O)(=O)c2cc(OC(F)(F)F)ccc2Cl)cc1 [3-(4-{[2-chloro-5-(trifluoromethoxy)benzene]sulfonyl}phenyl)-1-(pyridin-3-ylmethyl)urea]
- IC50 (NAMPT): 6.3 nM
- IC50 (A2780 cells; Homo sapiens, A2780, 72 h): 100 to 1000 nM

SMILES: O=C(NCc1cccnc1)Nc1ccc(S(=O)(=O)c2cc(C(F)(F)F)ccc2Cl)cc1 [3-(4-{[2-chloro-5-(trifluoromethyl)benzene]sulfonyl}phenyl)-1-(pyridin-3-ylmethyl)urea]
- IC50 (NAMPT): 5 nM
- IC50 (A2780 cells; Homo sapiens, A2780, 72 h): 339 nM

SMILES: O=C(NCc1cccnc1)Nc1ccc(S(=O)(=O)c2ccc(-n3cccn3)cc2F)cc1 [3-(4-{[2-fluoro-4-(1H-pyrazol-1-yl)benzene]sulfonyl}phenyl)-1-(pyridin-3-ylmethyl)urea]
- IC50 (NAMPT): 1 nM
- IC50 (A2780 cells; Homo sapiens, A2780, 72 h): 14 nM

SMILES: COc1cc(-n2cccn2)ccc1S(=O)(=O)c1ccc(NC(=O)NCc2cccnc2)cc1 [3-(4-{[2-methoxy-4-(1H-pyrazol-1-yl)benzene]sulfonyl}phenyl)-1-(pyridin-3-ylmethyl)urea]
- IC50 (NAMPT): 2 nM
- IC50 (A2780 cells; Homo sapiens, A2780, 72 h): 3 nM

SMILES: COc1ccc(C(C)C)cc1S(=O)(=O)c1ccc(NC(=O)NCc2cccnc2)cc1 [3-(4-{[2-methoxy-5-(propan-2-yl)benzene]sulfonyl}phenyl)-1-(pyridin-3-ylmethyl)urea]
- IC50 (NAMPT): 3 nM
- IC50 (A2780 cells; Homo sapiens, A2780, 72 h): 31 nM

SMILES: COc1ccc(C(F)(F)F)cc1S(=O)(=O)c1ccc(NC(=O)NCc2cccnc2)cc1 [3-(4-{[2-methoxy-5-(trifluoromethyl)benzene]sulfonyl}phenyl)-1-(pyridin-3-ylmethyl)urea]
- IC50 (NAMPT): 1.4 nM
- IC50 (A2780 cells; Homo sapiens, A2780, 72 h): 3.3 nM

SMILES: Cc1cc(-n2cccn2)ccc1S(=O)(=O)c1ccc(NC(=O)NCc2cccnc2)cc1 [3-(4-{[2-methyl-4-(1H-pyrazol-1-yl)benzene]sulfonyl}phenyl)-1-(pyridin-3-ylmethyl)urea]
- IC50 (NAMPT): 2 nM
- IC50 (A2780 cells; Homo sapiens, A2780, 72 h): 21 nM

SMILES: Cc1cc(C(F)(F)F)ccc1S(=O)(=O)c1ccc(NC(=O)NCc2cccnc2)cc1 [3-(4-{[2-methyl-4-(trifluoromethyl)benzene]sulfonyl}phenyl)-1-(pyridin-3-ylmethyl)urea]
- IC50 (NAMPT): 11.8 nM
- IC50 (A2780 cells; Homo sapiens, A2780, 72 h): 100 to 1000 nM

SMILES: CC(C)COc1cccc(S(=O)(=O)c2ccc(NC(=O)NCc3cccnc3)cc2)c1 [3-(4-{[3-(2-methylpropoxy)benzene]sulfonyl]phenyl)-1-(pyridin-3-ylmethyl)urea]
- IC50 (NAMPT): 3.3 nM
- IC50 (A2780 cells; Homo sapiens, A2780, 72 h): 100 to 1000 nM

SMILES: Cc1cc(C)n(-c2cccc(S(=O)(=O)c3ccc(NC(=O)NCc4cccnc4)cc3)c2)n1 [3-(4-{[3-(3,5-dimethyl-1H-pyrazol-1-yl)benzene]sulfonyl}phenyl)-1-(pyridin-3-ylmethyl)urea]
- IC50 (NAMPT): 1.6 nM
- IC50 (A2780 cells; Homo sapiens, A2780, 72 h): 15.9 nM

SMILES: Cc1nnc(-c2cccc(S(=O)(=O)c3ccc(NC(=O)NCc4cccnc4)cc3)c2)o1 [3-(4-{[3-(5-methyl-1,3,4-oxadiazol-2-yl)benzene]sulfonyl]phenyl)-1-(pyridin-3-ylmethyl)urea]
- IC50 (NAMPT): 7.3 nM
- IC50 (A2780 cells): 100 to 1000 nM

SMILES: CN(C)S(=O)(=O)c1cccc(S(=O)(=O)c2ccc(NC(=O)NCc3cccnc3)cc2)c1 [3-(4-{[3-(dimethylsulfamoyl)benzene]sulfonyl]phenyl)-1-(pyridin-3-ylmethyl)urea]
- IC50 (NAMPT): 3.3 nM
- IC50 (A2780 cells; Homo sapiens, A2780, 72 h): 79.3 nM

SMILES: CCS(=O)(=O)c1cccc(S(=O)(=O)c2ccc(NC(=O)NCc3cccnc3)cc2)c1 [3-(4-{[3-(ethanesulfonyl)benzene]sulfonyl]phenyl)-1-(pyridin-3-ylmethyl)urea]
- IC50 (NAMPT): 7.6 nM
- IC50 (A2780 cells; Homo sapiens, A2780, 72 h): 100 to 1000 nM

SMILES: CCNS(=O)(=O)c1cccc(S(=O)(=O)c2ccc(NC(=O)NCc3cccnc3)cc2)c1 [3-(4-{[3-(ethylsulfamoyl)benzene]sulfonyl}phenyl)-1-(pyridin-3-ylmethyl)urea]
- IC50 (NAMPT): 7.2 nM
- IC50 (A2780 cells; Homo sapiens, A2780, 72 h): 100 to 1000 nM

SMILES: COCc1cccc(S(=O)(=O)c2ccc(NC(=O)NCc3cccnc3)cc2)c1 [3-(4-{[3-(methoxymethyl)benzene]sulfonyl}phenyl)-1-(pyridin-3-ylmethyl)urea]
- IC50 (NAMPT): 3.3 nM
- IC50 (A2780 cells; Homo sapiens, A2780, 72 h): 93.3 nM

SMILES: CC(C)c1cccc(S(=O)(=O)c2ccc(NC(=O)NCc3cccnc3)cc2)c1 [3-(4-{[3-(propan-2-yl)benzene]sulfonyl}phenyl)-1-(pyridin-3-ylmethyl)urea]
- IC50 (NAMPT): 2 nM
- IC50 (A2780 cells; Homo sapiens, A2780, 72 h): 38 nM

SMILES: CC(C)Oc1cccc(S(=O)(=O)c2ccc(NC(=O)NCc3cccnc3)cc2)c1 [3-(4-{[3-(propan-2-yloxy)benzene]sulfonyl}phenyl)-1-(pyridin-3-ylmethyl)urea]
- IC50 (NAMPT): 4 nM
- IC50 (A2780 cells; Homo sapiens, A2780, 72 h): 79 nM

SMILES: CCCS(=O)(=O)Nc1cccc(S(=O)(=O)c2ccc(NC(=O)NCc3cccnc3)cc2)c1 [3-(4-{[3-(propane-1-sulfonamido)benzene]sulfonyl}phenyl)-1-(pyridin-3-ylmethyl)urea]
- IC50 (NAMPT): 1.6 nM
- IC50 (A2780 cells; Homo sapiens, A2780, 72 h): 86 nM

SMILES: O=C(NCc1cccnc1)Nc1ccc(S(=O)(=O)Nc2ccc(N3CCOCC3)c(Cl)c2)cc1 [3-(4-{[3-chloro-4-(morpholin-4-yl)phenyl]sulfamoyl}phenyl)-1-(pyridin-3-ylmethyl)urea]
- IC50 (NAMPT): 1 nM
- IC50 (A2780 cells; Homo sapiens, A2780, 72 h): 24 nM

SMILES: O=C(NCc1cccnc1)Nc1ccc(S(=O)(=O)c2ccc(C(F)(F)F)c(Cl)c2)cc1 [3-(4-{[3-chloro-4-(trifluoromethyl)benzene]sulfonyl}phenyl)-1-(pyridin-3-ylmethyl)urea]
- IC50 (NAMPT): 4 nM
- IC50 (A2780 cells; Homo sapiens, A2780, 72 h): 100 to 1000 nM

SMILES: O=C(NCc1cccnc1)Nc1ccc(S(=O)(=O)c2cc(Cl)cc(C(F)(F)F)c2)cc1 [3-(4-{[3-chloro-5-(trifluoromethyl)benzene]sulfonyl}phenyl)-1-(pyridin-3-ylmethyl)urea]
- IC50 (NAMPT): 1.3 nM
- IC50 (A2780 cells; Homo sapiens, A2780, 72 h): 25.5 nM

SMILES: O=C(NCc1cccnc1)Nc1ccc(S(=O)(=O)c2ccc(OCC(F)(F)F)c(F)c2)cc1 [3-(4-{[3-fluoro-4-(2,2,2-trifluoroethoxy)benzene]sulfonyl}phenyl)-1-(pyridin-3-ylmethyl)urea]
- IC50 (NAMPT): 2.2 nM
- IC50 (A2780 cells; Homo sapiens, A2780, 72 h): 100 to 1000 nM
